Results on one compound are retold here after patent publication US6706686B2, “Inhibition of histone deacetylase as a treatment for cardiac hypertrophy” (The Regents of the University of Colorado, priority 2001, dated 2004).

Assay [1] deals with cultured cardiac myocytes. Kind of assay: Myocyte growth by 14C-phenylalanine radiolabeled protein content. Format: cell-based, rat. How it is done:
Cell culture. Ventricular myocytes from one-day-old rats were plated at low density in MEM with 5% calf serum, and studied in serum-free MEM. Cultures were treated with PE (#P6126, Sigma-Aldrich Corp., St. Louis, Mo.), IL-1 (#501-RL, R&D Systems, Minneapolis, Minn.), TSA (#GR-309, BIOMOL Research Laboratories, Inc., Plymouth Meeting, Pa.) or their vehicles (ascorbic acid for PE; bovine serum albumin for IL-1; dimethyl sulfoxide for TSA).
Quantification of myocyte hypertrophy and myocyte-specific mRNA expression. Growth of cultured myocytes was quantified by content of radiolabeled protein after continuous incubation with ^14C-phenylalanine. For evaluation of the myocyte gene program, total RNA was extracted from cells with TRIZol (GIBCO, Carlsbad, Calif.) and used in RNase protection assay with probes for SERCA, α-/β-MyHC, ANP, BNP, and cardiac α-actin. All samples also included glyceraldehyde phosphate dehydrogenase (GAPDH) as an internal control for RNA loading.

Assay [2] concerns SERCA, αMyHC, βMyHC promoters in cultured myocytes. Put plainly: CAT reporter assay of myocyte-specific promoters. Format: cell-based, rat. The following applies: TSA 30 nmol/L. Here is the method:
FIGS. 2A-D. Over-expression of HDACs repress muscle-specific promoters. Cultured myocytes were transfected for 72 hrs. with expression vectors (2 μg per ˜3×10^5 cells) for Flag-tagged HDAC1, 4, 5 (or its backbone vector) and CAT reporter (5 μg) constructs for SERCA (FIG. 2A), αMyHC (FIG. 2B), βMyHC (FIGS. 2C and 2D) genes, plus SV40-driven secreted alkaline phosphatase (SEAP 1 μg, Clontech). TSA was used at 30 nmol/L, and added just after the transfection. PE […] (20 μmol/L) was added 24 hrs. later and CAT assays performed after an additional 48 hours. Mean data are from n=3 different cultures, and are presented as % of pCMV after normalization to SEAP activity in the media. Over-expression of HDAC was confirmed by Western blot for Flag.
Transfection. Myocytes were transfected using calcium-phosphate co-precipitation with cytomegalovirus promoter driven Flag-tagged expression vectors for HDACs 1, 4, 5 and reporter plasmids carrying the rat promoters for SERCA (3500 bp), αMyHC (2900 bp), or βMyHC (3300 bp) driving expression […] of the chroramphenicol acetyltransferase (CAT) gene. Reporter expression was evaluated after 48 hours as described previously with corection for transfection efficiency with SEAP (BD Biosciences Clontech, Palo Alto, Calif.). Over-expression of HDACs was confirmed by Western blot analyses using anti-Flag M2 antibody (Sigma-Aldrich Corp. St. Louis, Mo.).
For orientation: In a reporter assay the amount or activity of a reporter protein is the signal.

The test system of assay [3] is CMV-Lac Z reporter in neonatal rat cardiomyocytes. Put plainly: CMV-Lac Z reporter (specificity control). It is filed as cell-based. The following applies: inhibitor alone or together with phenylephrine. How it is done: FIGS. 3A-D. HDAC inhibitors block the activation of ANF reporter by phenylphrine without cytotoxicity. Neonatal rat cardiomyocytes were co-transfected with a total of 1 μg of the mouse 3 kb ANF promoter fragment and CMV-Lac Z plasmids. (FIG. 3A) The ANF promoter is minimally active in unstimulated cardiomyocytes. […] (FIG. 3B) Lac Z expression by the constitutive promoter CMV. Treatment with HDAC inhibitors augmented CMV activity with and without phenylephrine co-treatment. (FIGS. 3C and 3D) The graphs show the measurements of adenylate kinase activity remains constant in the medium after […] of culturing cardiomyocytes in the absence or presence of hypertrophic stimulants FBS, PE or ET-1.
Transcription assay. Twenty-four hours after plating, cells were transfected with total of 1 μg/ml for 5 hrs using Lipofectamine Plus reagent (Invitrogen, Carlsbad, Calif.). Transfected cells were incubated 24 hrs then treated for an additional 24 hrs. Cells were lysed and their lysates assayed with the Luciferase Assay System (Promega, Madison, Wis.) for luminescence using Lucysoft 2 luminometer (Rosys Anthos, New Castle, Del.).

For a further assay, the system named is cardiomyocytes. Kind of assay: Immunostaining for ANF protein and α-actinin (sarcomere). It is filed as cell-based, rat. Here is the method:
Immunostaining. Glass coverslips were coated with laminin (Invitrogen, Carlsbad, Calif.) by solublizing laminin in 1× PBS (40 μg/ml), by dipping the coverslips in the solution and by allowing them to air-dry. Cells were treated for 24 hrs, washed, fixed 10 min. with 3.7% formaldehyde, washed with 1× PBS and permeabolized with 1× PBS containing 3% BSA and 0.1% NP-40 (Sigma, St. Louis, Mo.). Primary Antibodies were in 1× PBS containing 3% BSA and 0.1% NP-40 for 30 min, then washed three times in 1× PBS. The secondary FITC or TRITC antibodies (Vector Laboratories, Inc., Burlingame, Calif.) were incubated (1:200) in same buffer solution as the primary antibodies, then washed in 1× PBS, covered and subsequently visualized. Images were captured using a digital camera (Hamamatsu Photonics, Hamamatsu City, Japan).

Assay [4] relates to rat neonatal cardiomyocytes. Put plainly: Gene chip array analysis. Format: cell-based. The following applies: two-or-more-fold difference. How it is done:
FIGS. 7A-B. TSA induces the activation of genes that are involved in cardiomyocyte differentiation. […] (FIG. 7B) Four genes were inactivated by phenylephrine and activated by TSA (results from one phenylephrine chip, two phenylephrine/TSA chips, and one TSA chip.)
Gene chip and analysis. RNA was isolated using Trizol (Invitrogen, Carlsbad, Calif.) from untreated, phenylephrine-treated, TSA-treated, and phenylephine/TSA co-treated rat neonatal cardiomyocytes. The RNAs were prepared and hybridized on U34A chips (Affymetrix, Inc., Santa Clara, Calif.) according to Affymetrix protocols. The intensity of hybridization was detected by and changes in gene expression were determined and analyzed by Micro Array Suite 5.0 (Affymetrix, Inc., Santa Clara, Calif.).

Turning to `CC(/C=C/C(=O)NO)=C\[C@@H](C)C(=O)c1ccc(N(C)C)cc1` [TSA, Trichostatin A], in assay [1] (inhibitor by itself), the myocyte growth result was “had no effect on myocyte growth”. In assay [1] (with PE or IL-1), the “hypertrophic responses to PE and IL-1 (growth)” value is “enhanced the individual hypertrophic responses to both PE and IL-1”. In assay [2], the “basal SERCA2 promoter activity” value is given as “increased the basal promoter activities”, the “basal αMyHC promoter activity” value is given as “increased the basal promoter activities” and the “basal βMyHC promoter activity” value is recorded as “not that of βMyHC”. In addition, in assay [3], the “transcriptional activity of CMV-Lac Z reporter” value is given as “increased the transcriptional activity of the CMV-Lac Z reporter”. In addition, the “ANF protein accumulation, inhibitor alone” value in the assay with cardiomyocytes (24 hrs) is on record as “lacked accumulation of ANF protein”. In the assay on cardiomyocytes (TSA alone), the cell size entry is “did not change size” and the “organization of the sarcomere (α-actinin), inhibitor alone” value is on record as “lacked organization of the sarcomere”. Besides, the “organization of the sarcomere with growth stimulants” value with cardiomyocytes (phenylephrine, serum or ET-1) is on record as “lacked fully organized sarcomeres”. Besides, the “ANF protein accumulation induced by phenylephrine or serum” value in the assay with cardiomyocytes (with phenylephrine or serum) is “dramatically reduced ANF protein accumulation”. Moreover, the “expression of big Tau-microtubule-associated protein, ubiquitin carboxyl-terminal hydrolase, Thy-1 cell-surface glycoprotein, MyHC class I antigen” value in assay [4] (genes down-regulated by phenylephrine) was “up-regulated by TSA”. In assay [4] (genes up-regulated by phenylephrine), the “expression of cytochrome oxidase subunit VIII, mouse T-complex protein, insulin growth factor binding protein-3” value is “down-regulated by TSA”.
